Test results reported in BindingDB's records for doi:10.1111/cbdd.12778 (Shandong University, 2016).

Experiments:
Aminopeptidase N = target: T1, Aminopeptidase N (Sus scrofa, UniProt P15145); experiment: APN Inhibition Assay; conditions: pH 7.2
T1 sequence (P15145 whole entry): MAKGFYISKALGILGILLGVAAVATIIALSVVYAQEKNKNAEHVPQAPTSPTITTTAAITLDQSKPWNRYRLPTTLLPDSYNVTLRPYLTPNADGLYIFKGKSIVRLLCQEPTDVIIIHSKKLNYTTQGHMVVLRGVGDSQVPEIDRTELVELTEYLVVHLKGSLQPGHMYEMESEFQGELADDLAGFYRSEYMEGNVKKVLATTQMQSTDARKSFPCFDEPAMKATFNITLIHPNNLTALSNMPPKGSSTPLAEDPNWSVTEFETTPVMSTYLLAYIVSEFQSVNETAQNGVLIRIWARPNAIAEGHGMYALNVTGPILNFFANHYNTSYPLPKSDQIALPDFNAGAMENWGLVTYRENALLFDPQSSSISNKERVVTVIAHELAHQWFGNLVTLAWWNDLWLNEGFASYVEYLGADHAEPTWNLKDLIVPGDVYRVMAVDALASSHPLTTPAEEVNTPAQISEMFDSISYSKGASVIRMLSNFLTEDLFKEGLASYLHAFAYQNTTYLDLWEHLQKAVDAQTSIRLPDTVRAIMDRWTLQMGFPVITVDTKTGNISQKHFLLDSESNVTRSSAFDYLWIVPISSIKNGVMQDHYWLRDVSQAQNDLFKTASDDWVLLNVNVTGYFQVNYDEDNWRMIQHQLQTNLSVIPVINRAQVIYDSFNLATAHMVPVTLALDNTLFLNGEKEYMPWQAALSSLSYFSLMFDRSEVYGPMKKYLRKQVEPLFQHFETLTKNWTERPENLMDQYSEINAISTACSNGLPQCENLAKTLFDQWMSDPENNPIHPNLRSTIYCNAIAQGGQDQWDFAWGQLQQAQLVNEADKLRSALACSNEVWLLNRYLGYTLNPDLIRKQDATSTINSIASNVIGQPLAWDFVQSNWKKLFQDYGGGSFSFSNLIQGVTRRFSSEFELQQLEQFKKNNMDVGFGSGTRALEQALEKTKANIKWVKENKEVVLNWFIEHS
Protocol: Briefly, the assay was performed in 96-well plates in […] PBS, pH 7.2 as the assay buffer, at 37 °C. The APN solution was mixed with compounds at various concentrations and incubated at 37 °C for 5 min. Subsequently, the substrate (l-leucine-p-nitroanilide) was added and the mixture was incubated for 30 min at 37°C.

Histone deacetylase 8 = target: T2, Histone deacetylase 8 (Homo sapiens, UniProt Q9BY41); experiment: In vitro HDAC8 Assay
T2 sequence (Q9BY41 whole entry): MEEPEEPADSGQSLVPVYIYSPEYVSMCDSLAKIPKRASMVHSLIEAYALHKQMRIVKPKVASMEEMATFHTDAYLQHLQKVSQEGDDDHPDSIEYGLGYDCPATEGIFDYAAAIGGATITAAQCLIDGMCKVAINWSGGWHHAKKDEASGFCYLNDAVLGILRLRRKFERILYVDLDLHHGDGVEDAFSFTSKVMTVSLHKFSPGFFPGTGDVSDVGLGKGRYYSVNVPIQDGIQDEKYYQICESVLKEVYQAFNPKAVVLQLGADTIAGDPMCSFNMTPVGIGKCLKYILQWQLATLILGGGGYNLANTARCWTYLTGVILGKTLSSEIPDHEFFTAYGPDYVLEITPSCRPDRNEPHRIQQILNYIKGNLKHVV
Protocol: Briefly, the HDAC8 enzyme was diluted 20 times. Then, 10 μL of HDAC8 solution was mixed with compounds at various concentrations (50 μL). Then, 40 μL of the substrate [Boc-Lys-(acetyl)-AMC, 300 μm] was added, and the mixture was incubated at 37 °C for 30 min. Subsequently, the reaction was stopped by the addition of 100 μL of developer containing trypsin (10 μg/mL) and TSA (2 μm). Fluorescence intensity was measured by a microplate reader at excitation and emission wavelengths of 390 and 460 nm, respectively.

| IC50 (Aminopeptidase N) [µM] | IC50 (Histone deacetylase 8) [µM] | SMILES |
| --- | --- | --- |
| > 100 | > 100 | CC1(C)CCC(C)(C)c2cc(NC(=O)c3ccc(C(=O)O)cc3)ccc21 [4-[(5,5,8,8-tetramethyl-5,6,7,8-tetrahydronaphthalen-2-yl)carbamoyl]benzoic acid] |
| > 100 | 4.3 | CC1(C)CCC(C)(C)c2cc(NC(=O)c3ccc(C(=O)NO)cc3)ccc21 [N1-hydroxy-N4-(5,5,8,8-tetramethyl-5,6,7,8-tetrahydronaphthalen-2-yl)terephthalamide (7b)] |
| > 100 | – | O=C(CCCCCCC(=O)Nc1ccccc1)NO [Zolinza] |
